Source: patent US6737383B1, “Herbicidal oxadiazolidines” (priority 1999, dated 2004)

What was measured:
surinam grass = experiment: Test B pre/postemergence surinam grass; assay type: in vivo, Brachiaria decumbens
How it was run: (§1)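 Test chemicals in a non-phytotoxic solvent mixture with surfactant were sprayed preemergence onto planted seeds and postemergence onto plants 2 to 18 cm tall (1- to 4-leaf stage). After twelve to sixteen days in a greenhouse, injury was visually rated against untreated controls from 0 (no effect) to 10 (complete control).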

giant foxtail = experiment: Test B pre/postemergence giant foxtail; assay type: in vivo, Setaria faberii
How it was run: as §1

soybean = experiment: Test B pre/postemergence soybean; assay type: in vivo, Glycine max
How it was run: as §1

rice = experiment: Test B flood test rice; assay type: in vivo, Oryza sativa
How it was run: (§2)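 Read-out is a visual response score from 0 (no effect) to 10 (complete control), assigned by comparison with untreated controls. Treatment was applied at the 2-leaf stage, and plants stayed in the greenhouse for twelve to sixteen days before scoring.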

duck salad = experiment: Test B flood test duck salad; assay type: in vivo, Heteranthera limosa
How it was run: as §2

corn = experiment: Test B pre/postemergence corn; assay type: in vivo, Zea mays
How it was run: as §1

wheat = experiment: Test B pre/postemergence wheat; assay type: in vivo, Triticum aestivum
How it was run: as §1

wild oat = experiment: Test B pre/postemergence wild oat; assay type: in vivo, Avena fatua
How it was run: as §1

rape = experiment: Test B pre/postemergence rape; assay type: in vivo, Brassica napus
How it was run: as §1

crabgrass = experiment: Test B pre/postemergence crabgrass; assay type: in vivo, Digitaria sanguinalis
How it was run: as §1

blackgrass = experiment: Test B pre/postemergence blackgrass; assay type: in vivo, Alopecurus myosuroides
How it was run: as §1

purple nutsedge = experiment: Test B pre/postemergence purple nutsedge; assay type: in vivo, Cyperus rotundus
How it was run: as §1

morningglory = experiment: Test B pre/postemergence morningglory; assay type: in vivo, Ipomoea hederacea
How it was run: as §1

bedstraw = experiment: Test B pre/postemergence bedstraw; assay type: in vivo, Galium aparine
How it was run: as §1

smallflower flatsedge = experiment: Test B flood test smallflower flatsedge; assay type: in vivo, Cyperus difformis
How it was run: as §2

velvetleaf = experiment: Test B pre/postemergence velvetleaf; assay type: in vivo, Abutilon theophrasti
How it was run: as §1

[1] = Preemergence, Rate 62 g/ha, scale of 0 to 10 where 0 is no effect and 10 is complete control
[2] = Preemergence, Rate 250 g/ha, scale of 0 to 10 where 0 is no effect and 10 is complete control
[3] = Preemergence, Rate 500 g/ha, scale of 0 to 10 where 0 is no effect and 10 is complete control
[4] = Rate 62 g/ha, Postemergence, scale of 0 to 10 where 0 is no effect and 10 is complete control
[5] = Rate 125 g/ha, Postemergence, scale of 0 to 10 where 0 is no effect and 10 is complete control
[6] = Rate 125 g/ha, Preemergence, scale of 0 to 10 where 0 is no effect and 10 is complete control
[7] = Rate 250 g/ha, Postemergence, scale of 0 to 10 where 0 is no effect and 10 is complete control
[8] = Rate 500 g/ha, Postemergence, scale 0 to 10, 0 no effect, 10 complete control
[9] = Rate 62 g/ha, headed Pre-emergence (flood test species), scale 0 to 10 (0 no effect, 10 complete control)
[10] = Rate 125 g/ha, Pre-emergence, flood test species, scale 0 to 10 where 0 is no effect and 10 is complete control
[11] = Rate 250 g/ha, Pre-emergence, flood-test species, scale 0 to 10, 0 is no effect, 10 is complete control
[12] = Rate 500 g/ha, Pre-emergence, flood test species, scale 0 to 10 (0 no effect, 10 complete control)

CC(C)N(C(=O)n1oc(=O)n(Cc2ccccn2)c1=O)c1ccc(F)cc1 [Compound 267]
1: Crabgrass plant response rating (crabgrass; [2]) | Morningglory plant response rating (morningglory; [5]) | Plant response rating, Velvetleaf (velvetleaf; [7])
3: B. signalgrass plant response rating (surinam grass; [8]) | Plant response rating, Soybean (soybean; [7]) | Plant response rating, Corn (corn; [3]) | Plant response rating, Wheat (wheat; [7]) | Plant response rating, Crabgrass (crabgrass; [7]) | Plant response rating, Morningglory (morningglory; [7]) | Plant response rating, Velvetleaf (velvetleaf; [3]) | Velvetleaf plant response rating (velvetleaf; [8])
5: Plant response rating, Blackgrass (blackgrass; [7])
9: Plant response rating, B. signalgrass (surinam grass; [3]) | Giant foxtail plant response rating (giant foxtail; [2]) | Plant response rating, Giant foxtail (giant foxtail; [3])
0: B. signalgrass plant response rating (surinam grass; [1]) | B. signalgrass plant response rating (surinam grass; [2]) | B. signalgrass plant response rating (surinam grass; [4]) | B. signalgrass plant response rating (surinam grass; [5]) | B. signalgrass plant response rating (surinam grass; [6]) | Plant response rating, B. signalgrass (surinam grass; [7]) | Giant foxtail plant response rating (giant foxtail; [5]) | Soybean plant response rating (soybean; [1]) | Soybean plant response rating (soybean; [2]) | Plant response rating, Soybean (soybean; [3]) | Soybean plant response rating (soybean; [6]) | Rice plant response rating (rice; [9]) | Rice plant response rating (rice; [10]) | Rice plant response rating (rice; [11]) | Rice plant response rating (rice; [12]) | Ducksalad plant response rating (duck salad; [9]) | Ducksalad plant response rating (duck salad; [10]) | Ducksalad plant response rating (duck salad; [11]) | Ducksalad plant response rating (duck salad; [12]) | Corn plant response rating (corn; [1]) | Corn plant response rating (corn; [4]) | Corn plant response rating (corn; [5]) | Corn plant response rating (corn; [6]) | Plant response rating, Corn (corn; [7]) | Corn plant response rating (corn; [8]) | Wheat plant response rating (wheat; [1]) | Wheat plant response rating (wheat; [2]) | Plant response rating, Wheat (wheat; [3]) | Wheat plant response rating (wheat; [5]) | Wheat plant response rating (wheat; [6]) | Wild oats plant response rating (wild oat; [1]) | Wild oats plant response rating (wild oat; [2]) | Wild oats plant response rating (wild oat; [5]) | Wild oats plant response rating (wild oat; [6]) | Rape plant response rating (rape; [1]) | Rape plant response rating (rape; [2]) | Plant response rating, Rape (rape; [3]) | Rape plant response rating (rape; [5]) | Rape plant response rating (rape; [6]) | Plant response rating, Rape (rape; [7]) | Crabgrass plant response rating (crabgrass; [5]) | Crabgrass plant response rating (crabgrass; [6]) | Blackgrass plant response rating (blackgrass; [1]) | Blackgrass plant response rating (blackgrass; [4]) | Blackgrass plant response rating (blackgrass; [5]) | Nutsedge plant response rating (purple nutsedge; [1]) | Nutsedge plant response rating (purple nutsedge; [2]) | Plant response rating, Nutsedge (purple nutsedge; [3]) | Nutsedge plant response rating (purple nutsedge; [5]) | Nutsedge plant response rating (purple nutsedge; [6]) | Plant response rating, Nutsedge (purple nutsedge; [7]) | Morningglory plant response rating (morningglory; [1]) | Morningglory plant response rating (morningglory; [2]) | Plant response rating, Morningglory (morningglory; [3]) | Morningglory plant response rating (morningglory; [6]) | Bedstraw plant response rating (bedstraw; [1]) | Bedstraw plant response rating (bedstraw; [2]) | Bedstraw plant response rating (bedstraw; [4]) | Bedstraw plant response rating (bedstraw; [5]) | Bedstraw plant response rating (bedstraw; [6]) | S. Flatsedge plant response rating (smallflower flatsedge; [9]) | S. Flatsedge plant response rating (smallflower flatsedge; [10]) | S. Flatsedge plant response rating (smallflower flatsedge; [11]) | S. Flatsedge plant response rating (smallflower flatsedge; [12]) | Velvetleaf plant response rating (velvetleaf; [1]) | Velvetleaf plant response rating (velvetleaf; [2]) | Velvetleaf plant response rating (velvetleaf; [5]) | Velvetleaf plant response rating (velvetleaf; [6])
7: Giant foxtail plant response rating (giant foxtail; [8]) | Crabgrass plant response rating (crabgrass; [8]) | Bedstraw plant response rating (bedstraw; [8])
4: Wheat plant response rating (wheat; [8]) | Wild oats plant response rating (wild oat; [8]) | Nutsedge plant response rating (purple nutsedge; [8]) | Plant response rating, Bedstraw (bedstraw; [7])
2: Plant response rating, Giant foxtail (giant foxtail; [7]) | Soybean plant response rating (soybean; [5]) | Corn plant response rating (corn; [2]) | Plant response rating, Wild oats (wild oat; [3]) | Plant response rating, Wild oats (wild oat; [7]) | Rape plant response rating (rape; [8]) | Crabgrass plant response rating (crabgrass; [1]) | Blackgrass plant response rating (blackgrass; [2]) | Blackgrass plant response rating (blackgrass; [6]) | Plant response rating, Bedstraw (bedstraw; [3])
6: Soybean plant response rating (soybean; [8])
8: Giant foxtail plant response rating (giant foxtail; [1]) | Giant foxtail plant response rating (giant foxtail; [6]) | Plant response rating, Crabgrass (crabgrass; [3]) | Plant response rating, Blackgrass (blackgrass; [3]) | Blackgrass plant response rating (blackgrass; [8]) | Morningglory plant response rating (morningglory; [8])

Cc1ccccc1-n1c(=O)on(C(=O)N(c2ccc(Oc3ccccc3)cc2)C(C)C)c1=O [Compound 268]
7: Morningglory plant response rating (morningglory; [8])
3: Corn plant response rating (corn; [8])
2: Morningglory plant response rating (morningglory; [5]) | Plant response rating, Morningglory (morningglory; [7])
0: B. signalgrass plant response rating (surinam grass; [1]) | B. signalgrass plant response rating (surinam grass; [2]) | Plant response rating, B. signalgrass (surinam grass; [3]) | B. signalgrass plant response rating (surinam grass; [4]) | B. signalgrass plant response rating (surinam grass; [5]) | B. signalgrass plant response rating (surinam grass; [6]) | Plant response rating, B. signalgrass (surinam grass; [7]) | Giant foxtail plant response rating (giant foxtail; [1]) | Giant foxtail plant response rating (giant foxtail; [2]) | Plant response rating, Giant foxtail (giant foxtail; [3]) | Giant foxtail plant response rating (giant foxtail; [5]) | Giant foxtail plant response rating (giant foxtail; [6]) | Plant response rating, Giant foxtail (giant foxtail; [7]) | Giant foxtail plant response rating (giant foxtail; [8]) | Soybean plant response rating (soybean; [1]) | Soybean plant response rating (soybean; [2]) | Plant response rating, Soybean (soybean; [3]) | Soybean plant response rating (soybean; [5]) | Soybean plant response rating (soybean; [6]) | Plant response rating, Soybean (soybean; [7]) | Rice plant response rating (rice; [9]) | Rice plant response rating (rice; [10]) | Rice plant response rating (rice; [11]) | Rice plant response rating (rice; [12]) | Ducksalad plant response rating (duck salad; [9]) | Ducksalad plant response rating (duck salad; [10]) | Ducksalad plant response rating (duck salad; [11]) | Ducksalad plant response rating (duck salad; [12]) | Corn plant response rating (corn; [1]) | Corn plant response rating (corn; [2]) | Plant response rating, Corn (corn; [3]) | Corn plant response rating (corn; [4]) | Corn plant response rating (corn; [5]) | Corn plant response rating (corn; [6]) | Plant response rating, Corn (corn; [7]) | Wheat plant response rating (wheat; [1]) | Wheat plant response rating (wheat; [2]) | Plant response rating, Wheat (wheat; [3]) | Wheat plant response rating (wheat; [5]) | Wheat plant response rating (wheat; [6]) | Plant response rating, Wheat (wheat; [7]) | Wild oats plant response rating (wild oat; [1]) | Wild oats plant response rating (wild oat; [2]) | Plant response rating, Wild oats (wild oat; [3]) | Wild oats plant response rating (wild oat; [5]) | Plant response rating, Wild oats (wild oat; [7]) | Rape plant response rating (rape; [1]) | Rape plant response rating (rape; [2]) | Plant response rating, Rape (rape; [3]) | Rape plant response rating (rape; [5]) | Rape plant response rating (rape; [6]) | Plant response rating, Rape (rape; [7]) | Crabgrass plant response rating (crabgrass; [1]) | Crabgrass plant response rating (crabgrass; [2]) | Plant response rating, Crabgrass (crabgrass; [3]) | Crabgrass plant response rating (crabgrass; [5]) | Crabgrass plant response rating (crabgrass; [6]) | Plant response rating, Crabgrass (crabgrass; [7]) | Crabgrass plant response rating (crabgrass; [8]) | Blackgrass plant response rating (blackgrass; [1]) | Blackgrass plant response rating (blackgrass; [2]) | Plant response rating, Blackgrass (blackgrass; [3]) | Blackgrass plant response rating (blackgrass; [4]) | Blackgrass plant response rating (blackgrass; [5]) | Blackgrass plant response rating (blackgrass; [6]) | Plant response rating, Blackgrass (blackgrass; [7]) | Nutsedge plant response rating (purple nutsedge; [1]) | Nutsedge plant response rating (purple nutsedge; [2]) | Nutsedge plant response rating (purple nutsedge; [5]) | Nutsedge plant response rating (purple nutsedge; [6]) | Plant response rating, Nutsedge (purple nutsedge; [7]) | Nutsedge plant response rating (purple nutsedge; [8]) | Morningglory plant response rating (morningglory; [1]) | Morningglory plant response rating (morningglory; [2]) | Plant response rating, Morningglory (morningglory; [3]) | Morningglory plant response rating (morningglory; [6]) | Bedstraw plant response rating (bedstraw; [1]) | Bedstraw plant response rating (bedstraw; [2]) | Plant response rating, Bedstraw (bedstraw; [3]) | Bedstraw plant response rating (bedstraw; [4]) | Bedstraw plant response rating (bedstraw; [5]) | Bedstraw plant response rating (bedstraw; [6]) | Plant response rating, Bedstraw (bedstraw; [7]) | S. Flatsedge plant response rating (smallflower flatsedge; [9]) | S. Flatsedge plant response rating (smallflower flatsedge; [10]) | S. Flatsedge plant response rating (smallflower flatsedge; [11]) | S. Flatsedge plant response rating (smallflower flatsedge; [12]) | Velvetleaf plant response rating (velvetleaf; [1]) | Velvetleaf plant response rating (velvetleaf; [2]) | Plant response rating, Velvetleaf (velvetleaf; [3]) | Velvetleaf plant response rating (velvetleaf; [5]) | Velvetleaf plant response rating (velvetleaf; [6]) | Plant response rating, Velvetleaf (velvetleaf; [7]) | Velvetleaf plant response rating (velvetleaf; [8])
